Experimental data: paper PMC11859184, “Synthesis and Evaluation of ^68Ga- and ^177Lu-Labeled [diF-Pro^14]Bombesin(6−14) Analogs for Detection and Radioligand Therapy of Gastrin-Releasing Peptide Receptor-Expressing Cancer” (Pharmaceuticals, 2025)

Key:
[1] = test system: PC-3 tumor-bearing mice; experiment: Ex vivo biodistribution of 68Ga-labeled tracers in PC-3 tumor-bearing mice; settings: 1 h pi; for reduction of average tumor uptake by co-injection of blocking agent: 100 µg blocking agent
Protocol: PET/CT imaging and biodistribution studies were conducted using male NOD.Cg-Rag1^tm1Mom Il2rg^tm1Wjl/SzJ (NRG) mice following previously published procedures. The studies were carried out in compliance with the guidelines established by the Canadian Council on Animal Care and approved by Animal Ethics Committee of the University of British Columbia (protocol number A20-0113, approved on 30 September 2022). The mice were anaesthetized and subcutaneously implanted with 5 × 10^6 PC-3 cells (100 µL; 1:1 PBS/Matrigel) behind the left shoulder. PET/CT imaging and biodistribution studies were performed once the tumors reached a diameter of 5–8 mm, typically after approximately 4 weeks of growth.
For ex vivo biodistribution studies, the mice were injected with the ^68Ga-labeled tracer (2–4 MBq) via a lateral caudal tail vein. For blocking [^68Ga]Ga-LW02060, the mice were co-injected with 100 μg of [D-Phe^6,Leu-NHEt^13,des-Met^14]Bombesin(6–14). For blocking [^68Ga]Ga-LW02080, the mice were co-injected with 100 μg of its nonradioactive standard Ga-LW02080. At 1 h pi, the mice were euthanized by CO2 inhalation. Blood and organs/tissues of interest were collected, weighed, and counted using a gamma counter.

[2] = In vivo stability study (radio-HPLC of plasma and urine); settings: NRG mice, 15 min pi; for remaining intact in plasma: n = 3
Protocol: For in vivo stability studies, [^68Ga]Ga-LW02060 or [^68Ga]Ga -LW02080 (5.23–12.9 MBq) was injected into healthy male NRG mice (n = 3) tough a lateral caudal tail vein. At 15 min pi, mice were anaesthetized and euthanized, followed by collection of the urine and blood samples. The plasma was extracted from whole blood by adding an equal volume of CH3CN, followed by vortexing, centrifugation, and collection of the supernatant. The plasma and urine samples were analyzed via radio-HPLC.

[3] = test system: PC-3 tumor-bearing mice; experiment: Ex vivo biodistribution of 177Lu-labeled ligands in PC-3 tumor-bearing mice; settings: 1 h pi, 100 µg [D-Phe6,Leu-NHEt13,des-Met14]Bombesin(6-14)
Protocol: SPECT/CT imaging was conducted using an MI Labs (Houten, The Netherlands) U-SPECT-II/CT scanner with a custom-made ultra-high sensitivity big mouse collimator (2 mm pinhole size) following published procedure. The experiments were obtained in accordance with the same protocol established in the PET/CT imaging and ex vivo biodistributions section. The mice were used for SPECT/CT imaging and ex vivo biodistributions studies once the tumors reached a diameter of 5–8 mm. PC-3 tumor-bearing mice were sedated (2.5% isoflurane in O2) and injected with 31.4–36.9 MBq of the ^177Lu-labeled ligand through a lateral caudal tail vein. The mouse was imaged at 1, 4, 24, 72, and 120 h pi. At each time point, a 5 min CT scan was performed with 615 μA and 60 kV parameters for localization and attenuation, followed by two 30 min static SPECT scans in list mode with an energy window centered around 208 keV. The U-SPECT II software was used to reconstruct data, and the images were decay corrected to the time of injection with PMOD v 3.402 (PMOD Technologies GmbH, Fallanden, Switzerland).
For ex vivo biodistribution studies, the mice were injected with ~3–5 MBq of the ^177Lu-labeled ligand (n = 5). At 1, 4, 24, 72, and 120 h post-injection, the mice were anesthetized with 2% isoflurane, euthanized by CO2 inhalation, and the tissues/organs of interest were […] for radioactivity counting. The blocking study was performed at 1 h pi via co-injection of the ^177Lu-labeled ligand with 100 μg of [D-Phe^6,Leu-NHEt^13,des-Met^14]Bombesin(6–14).

[4] = target: T1, GRPR (Homo sapiens, UniProt P30550); experiment: Fluorometric intracellular calcium release assay using PC-3 cells; format: cell-based; settings: 50 nM ligand, n = 4
T1 construct: host or cells: PC-3 cells
T1 sequence (P30550 whole entry): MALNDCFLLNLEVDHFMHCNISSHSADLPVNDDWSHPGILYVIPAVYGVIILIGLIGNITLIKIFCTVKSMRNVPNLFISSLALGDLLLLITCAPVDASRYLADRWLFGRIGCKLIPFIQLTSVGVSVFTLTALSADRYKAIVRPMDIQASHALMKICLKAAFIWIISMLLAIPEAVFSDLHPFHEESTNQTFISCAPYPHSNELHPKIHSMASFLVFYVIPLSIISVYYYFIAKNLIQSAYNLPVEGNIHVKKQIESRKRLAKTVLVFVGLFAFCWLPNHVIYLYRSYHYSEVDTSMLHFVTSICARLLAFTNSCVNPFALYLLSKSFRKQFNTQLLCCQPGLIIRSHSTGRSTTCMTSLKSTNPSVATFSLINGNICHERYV
Protocol: The agonist/antagonist characteristics of LW02060, Ga-LW02060, Lu-LW02060, LW02080, Ga-LW02080, and Lu-LW02080 were determined following published procedures. The PC-3 cells were obtained from ATCC (via Cedarlane, Burlington, ON, Canada). A 96-well clear bottom black plate was seeded with 5 × 10^4 PC-3 cells in 100 μL growth media per well 24 h before the assay. The loading buffer (100 μL/well) containing a calcium-sensitive dye (FLIPR Calcium 6 assay kit from Molecular Devices, San Jose, CA, USA) was added into the 96-well plate, followed by 1 h incubation at 37 °C. The plate was then transferred into a FlexStation 3 microplate reader (Molecular Devices, San Jose, CA, USA). LW02060 (50 nM), Ga-LW02060 (50 nM), Lu-LW02060 (50 nM), LW02080 (50 nM), Ga-LW02080 (50 nM), Lu-LW02080 (50 nM), [D-Phe^6,Leu-NHEt^13,des-Met^14]Bombesin(6–14) (50 nM, antagonist control), bombesin (50 nM, agonist control), adenosine triphosphate (ATP, 50 nM, positive control), or DPBS (blank control) was added, and the fluorescent signals were measured for 2 min (λEx = 485 nm; λEm = 525 nm; n = 4). The relative fluorescent units (RFU = max − min) were calculated to determine the agonistic/antagonistic characteristics of LW02060, Ga-LW02060, Lu-LW02060, LW02080, Ga-LW02080, and Lu-LW02080, respectively.

| Compound | uptake in all other collected organs/tissues (except tumor xenografts and kidneys) [1] | intact tracer in urine [2] | remaining intact in plasma [2] | intracellular calcium release [4] | reduction of average tumor uptake by co-injection of blocking agent [1] | reduction of tumor uptake by co-injection of blocking agent [3] | other results |
| --- | --- | --- | --- | --- | --- | --- | --- |
| CC(C)C[C@H](NC(=O)[C@H](Cc1cnc[nH]1)N(C)C(=O)CNC(=O)[C@@H](NC(=O)[C@H](C)NC(=O)[C@H](Cc1c[nH]c2ccccc12)NC(=O)[C@H](CCC(N)=O)NC(=O)[C@@H](Cc1ccccc1)NC(=O)CN1CCC(NC(=O)CN2CCN(CC(=O)O)CCN(CC(=O)O)CCN(CC(=O)O)CC2)CC1)C(C)(C)C)C(=O)N1CC(F)(F)C[C@H]1C(N)=O [[^68Ga]Ga-LW02060] [metal not drawn] | lower than 1 %ID/g | No intact tracer was detected | > 99% | – | 64% | – | tumor uptake relative to [68Ga]Ga-LW02080 [1]: 2.3 fold; tumor uptake relative to previously reported [68Ga]Ga-LW02056 [1]: 1.9 fold |
| CC(C)C[C@H](NC(=O)[C@H](Cc1cnc[nH]1)N(C)C(=O)CNC(=O)[C@@H](NC(=O)[C@H](C)NC(=O)[C@H](Cc1c[nH]c2ccccc12)NC(=O)[C@H](CCC(N)=O)NC(=O)[C@@H](Cc1ccccc1)NC(=O)CN1CCC(NC(=O)CN2CCN(CC(=O)O)CCN(CC(=O)O)CCN(CC(=O)O)CC2)CC1)C(C)(C)C)C(=O)N1CC(F)(F)C[C@H]1C(N)=O [[^177Lu]Lu-LW02060] [metal not drawn] | – | – | – | – | – | 66% | reduction of pancreas uptake by co-injection of blocking agent [3]: 81%; reduction of small intestine uptake by co-injection of blocking agent [3]: 66%; reduction of stomach uptake by co-injection of blocking agent [3]: 72% |
| CC(C)C[C@@H](CN1CC(F)(F)C[C@H]1C(N)=O)NC(=O)[C@H](Cc1c[nH]cn1)NC(=O)CN(C)C(=O)[C@@H](NC(=O)[C@H](C)NC(=O)[C@H](Cc1c[nH]c2ccccc12)NC(=O)[C@H](CCC(N)=O)NC(=O)[C@@H](Cc1ccccc1)NC(=O)CN1CCC(NC(=O)CN2CCN(CC(=O)O)CCN(CC(=O)O)CCN(CC(=O)O)CC2)CC1)C(C)C [[^177Lu]Lu-LW02080] [metal not drawn] | – | – | – | – | – | 64% | – |
| [D-Phe^6,Leu-NHEt^13,des-Met^14]Bombesin(6–14) [reference compound] | – | – | – | 16.6 ± 3.84 RFU | – | – | – |

More lines, main results first:

| uptake in all other collected organs/tissues (except tumor xenografts and kidneys) [1] | intact tracer in urine [2] | remaining intact in plasma [2] | intracellular calcium release [4] | Compound | reduction of average tumor uptake by co-injection of blocking agent [1] | reduction of tumor uptake by co-injection of blocking agent [3] | other results |
| --- | --- | --- | --- | --- | --- | --- | --- |
| lower than 1 %ID/g | No intact tracer was detected | 87.4 ± 5.34% | – | CC(C)C[C@@H](CN1CC(F)(F)C[C@H]1C(N)=O)NC(=O)[C@H](Cc1c[nH]cn1)NC(=O)CN(C)C(=O)[C@@H](NC(=O)[C@H](C)NC(=O)[C@H](Cc1c[nH]c2ccccc12)NC(=O)[C@H](CCC(N)=O)NC(=O)[C@@H](Cc1ccccc1)NC(=O)CN1CCC(NC(=O)CN2CCN(CC(=O)O)CCN(CC(=O)O)CCN(CC(=O)O)CC2)CC1)C(C)C [[^68Ga]Ga-LW02080] [metal not drawn] | 77% | – | – |
| – | – | – | 371 ± 17.9 RFU | bombesin [reference compound] | – | – | – |
